Test results: article PMC6804243, “Small-Molecule Inhibition of UBE2T/FANCL-Mediated Ubiquitylation in the Fanconi Anemia Pathway” (ACS Chemical Biology, 2019)

Tested on: pS345 CHK1, γH2AX, pS824 KAP1, PARP1
Assay: Immunoblot of DNA damage biomarkers (pS345 CHK1, γH2AX, pS824 KAP1, PARP1 cleavage) in U2OS cells
Type: cell-based
Settings: 8 h, CU1 200 μM or CU2 500 μM; for levels of pS824 KAP1 / levels of pS345 CHK1: HU 2.5 mM; for levels of pS345 CHK1: relative to DMSO control; for levels of γH2AX (immunoblot): in combination with HU 2.5 mM, relative to HU plus DMSO
Method: As DNA damage induced by HU is cell-cycle-dependent, it was necessary to establish whether CU1 and CU2 might simply prevent cells from entering the S-phase, which would also manifest itself as a reduction in mUb-FANCD2. This was determined by analysis of several biomarkers linked to DNA damage in cycling cells. Activated CHK1 (pS345 CHK1) phosphorylates CDC25A, inducing the transient arrest of cells in the S-phase, or in G2 before the onset of mitosis.[18] […] These observations were also confirmed by cell cycle analysis.
Following the generation of DNA DSBs, ATM, ATR, and/or DNA-PKcs mediated phosphorylation of histone H2AX generates the phosphorylated species, γH2AX.[19] […] Following HU treatment, DSBs are formed if stalled replication forks are not stabilized and subsequently collapse. Therefore, we concluded that CU1 and CU2 appeared to act by impairing the ability of cells to stabilize and repair stalled replication forks. This is consistent with CU1 and CU2 inhibiting the formation of mUb-FANCD2, which would otherwise play a role in stabilizing stalled replication forks, thus preventing their collapse and the formation of DSBs.
In response to DSB formation, the transcriptional repressor and RING finger protein, KAP1, is released from chromatin, following its ATM-mediated phosphorylation on Ser824.[20] […] An increase in the number of DSBs could also have been caused by apoptosis. In cells undergoing apoptosis, PARP1 is cleaved from a full-length 116 kDa protein into 89 and 24 kDa polypeptides by caspase-3.[21]
Reaction mixtures were incubated for the indicated time at 37 °C and stopped by the addition of 2X reducing SDS -PAGE sample buffer, separated on NuPAGE Novex 4 –12% Bis/Tris gradient gels (Invitrogen) and visualized by Western blotting using the indicated antibodies (Table S3).
Cell culture. U2OS cells were cultured at 37 °C in a humidified atmosphere and 5% (v/v) CO2 in Dulbecco's Modified Eagle Medium (DMEM; Sigma-Aldrich) supplemented with 10% (v/v) fetal bovine serum (FBS), 100 units/ml of penicillin, […] of streptomycin and 292 μg/mL L-glutamine.
Cell extract preparation and immunoblotting. U2OS cells were lysed in buffer containing 50 mM Tris-HCl pH 7.5, 2% SDS, 10 mM NEM, cocktail protease inhibitor (Roche) and phosphatase inhibitor cocktail followed by sonication 100 µg of extracts were boiled for 5 mins at 95 °C in 5X loading buffer and loaded onto NuPAGE Novex 4–12% Bis/Tris gradient gels
(Invitrogen), or NuPAGE Novex 3-8% Tris/Acetate gradient gels (Invitrogen) for detection of mUb-FANCD2. After separation the gels were transferred to PVDF and the membranes were blocked with Tris-buffered saline containing 0.1% (v/v) Tween-20 (TBST) and 5% (v/v) bovine serum albumin (BSA) and incubated with the indicated primary and secondary antibodies. mUb-FANCD2 intensity was quantified using Image Studio (LI-COR).
IncuCyte cell proliferation assays. 2000 U2OS cells were seeded per well in 96-well plates and treated with compounds 24 hours afterwards. After 1 hour of compound treatment, 15 µM carboplatin (Sigma-Aldrich) was added and the cells were cultured in an incubator with an IncuCyte microscopy -platform (Essen BioScience). Phase -contrast images were acquired every 6 hours for 8 days until DMSO-carboplatin treated cells reached >80% confluence. Cell proliferation was monitored as the occupied area (% confluence) of cell images over time and calculated as percentage confluence over time. Cell confluency percentages were calculated using the integrated Cell Player software and results were analysed with Prism 6 (GraphPad Software).

| Compound | levels of pS824 KAP1 | levels of pS345 CHK1 | levels of γH2AX (immunoblot) |
| --- | --- | --- | --- |
| NCCN1C(=O)CC[C@H]2CN(Cc3cccc(-c4ccco4)c3)CC[C@H]21 [CU1] | increased levels of pS824 KAP1 | Comparable levels of pS345 CHK1 | somewhat increased the levels of γH2AX |
| CCN1CCN(c2cc(C)nc3nc(CN4CCCCC4C)nn23)CC1 (stereo not drawn) [CU2] | increased levels of pS824 KAP1 | Comparable levels of pS345 CHK1 | somewhat increased the levels of γH2AX |
